{
  "source": "patent US20260176285A1",
  "about": "“SALT OF DIOXANE QUINOLINE COMPOUND, CRYSTAL FORM THEREOF, PREPARATION METHODS THEREFOR AND USES THEREOF” (Beijing Scitech-MQ Pharmaceuticals Limited, priority 2022, published 2026)",
  "key": {"[1]": {"assay": "Dynamic solubility in water, SGF, FaSSIF and FeSSIF", "format": "physicochemical", "set-up": "S (dynamic solubility): unit not given here", "settings": "listed as Mucate salt crystal form A-I; for S (dynamic solubility): 37° C., feed 10 mg/mL", "outline": "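Free form and salt crystal forms tested over time in water, SGF (pH 1.8), FaSSIF (pH 6.5) and FeSSIF (pH 5.0), simulated fluids made with SIF powder. At each time point samples were centrifuged, passed through 0.45 μm PTFE, and filtrate concentration (HPLC) and pH measured.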"}, "[2]": {"assay": "Solid-state stability evaluation (XRPD, HPLC)", "format": "physicochemical", "settings": "listed as Mucate salt crystal form A-I", "method": "The following 6 test samples were placed under 25° C./60% RH and 40° C./75% RH conditions for 1 week, and then the physical and chemical stability of the samples was tested by XRPD and HPLC.\nAt the same time, after the p-toluenesulfonate salt crystal form A-II and crystal form B-III solids were placed at 80° C. for 24 hours, the physical and chemical stability of the samples were tested by XRPD and HPLC."}, "[3]": {"system": "human lung cancer cells EBC-1", "assay": "Efficacy in nude mouse tumor-bearing model of human lung cancer cells EBC-1", "format": "in vivo, Balb/c nude mouse", "text": "In this assay, the free compound of formula (I) of the present application and different salts of the compound prepared in Examples 1, 2 and 5 were orally administered to a nude mouse tumor-bearing model of human lung cancer cells EBC-1 to study their effects on tumor growth.\nPreparation of test compounds: an appropriate weight of the test compound (including the free form of the compound of formula (I) and different salts of the compound prepared in Examples 1, 2 and 5) was weighed, completely suspended/dissolved in an appropriate volume of 0.1% sodium carboxymethyl cellulose, stirred and vortexed to give a uniform solution or suspension.\nMethods: All assays were authorized by the Animal Welfare Committee. EBC-1 in the logarithmic growth phase was inoculated into immune-deficient nude mice (BALB/c nude, female, 6-8 weeks old, weighing 18±2 g), subcutaneously on the right back, with a cell inoculation amount of 5×10^6/mouse. After the tumor grew to 150-200 mm^3, the animals were randomly divided into groups, 6 mice per group. The dose of each test substance was set at 15 mg/kg and 7.5 mg/kg (both based on the concentration of the effective formula (I) compound), and administered once a day for about 3 weeks. The test compounds were freshly prepared each day before use. During the assay, the tumor diameter was measured twice a week, and the mice were weighed at the same time. The calculation formula of tumor volume (TV) is: TV=1/2×a×b^2, where a and b represent length and width, respectively. The relative tumor volume (RTV) was calculated based on the measurement results, and the calculation formula is: RTV=Vt/V0, wherein V0 is the tumor volume measured at the time of cage grouping and dosing initiation (i.e., d0), and Vt is the tumor volume at each measurement. The evaluation index of antitumor activity is the relative tumor proliferation rate T/C (%), calculated as follows: T/C (%)=(TRTV/CRTV)×100%, TRTV: RTV of the treatment group; CRTV: RTV of the negative control group. T and C represent the average tumor volume at a certain time point in the drug administration group and the control group, respectively."}, "[4]": {"assay": "Hygroscopicity by dynamic moisture sorption (DVS)", "format": "physicochemical", "settings": "DVS, listed as Mucate salt crystal form A-I", "outline": "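Mass change of salt and free-form crystal samples recorded at 25° C over a 0% RH-95% RH-0% RH cycle. Steps were 10% RH (last step 5%) with a dm/dt equilibrium criterion of 0.002%/min.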"}},
  "data": [
    {"smiles": "O=C(Nc1ccc(F)cc1)C1(C(=O)Nc2ccc(Oc3ccnc4cc(OCCCN5CCOCC5)c5c(c34)OCCO5)c(F)c2)CC1", "note": "[Example 1, N-(3-fluoro-4-((5-(3-morpholinopropoxy)-2,3-dihydro-[1,4]dioxano[2,3-f]quinolin-10-yl)oxy)phenyl)-N-(4-fluorophenyl)cyclopropane-1,1-dicarboxamide]", "values": [
      {"measurement": "S (dynamic solubility)", "setting": "[1]; FaSSIF, 1 hour", "result": 0.0036},
      {"measurement": "pH of the filtrate", "setting": "[1]; FaSSIF, 1 hour", "result": 6.3},
      {"measurement": "S (dynamic solubility)", "setting": "[1]; FaSSIF, 2 hours", "result": 0.0048},
      {"measurement": "pH of the filtrate", "setting": "[1]; FaSSIF, 2 hours", "result": 6.2},
      {"measurement": "S (dynamic solubility)", "setting": "[1]; FaSSIF, 4 hours", "result": 0.0042},
      {"measurement": "pH of the filtrate", "setting": "[1]; FaSSIF, 4 hours", "result": 6.2},
      {"measurement": "S (dynamic solubility)", "setting": "[1]; FaSSIF, 24 hours", "result": 0.0070},
      {"measurement": "pH of the filtrate", "setting": "[1]; FaSSIF, 24 hours", "result": 5.5},
      {"measurement": "S (dynamic solubility)", "setting": "[1]; FeSSIF, 1 hour", "result": 1.3},
      {"measurement": "pH of the filtrate", "setting": "[1]; FeSSIF, 1 hour", "result": 4.9},
      {"measurement": "S (dynamic solubility)", "setting": "[1]; FeSSIF, 2 hours", "result": 1.6},
      {"measurement": "pH of the filtrate", "setting": "[1]; FeSSIF, 2 hours", "result": 4.9},
      {"measurement": "S (dynamic solubility)", "setting": "[1]; FeSSIF, 4 hours", "result": 1.8},
      {"measurement": "pH of the filtrate", "setting": "[1]; FeSSIF, 4 hours", "result": 4.9},
      {"measurement": "S (dynamic solubility)", "setting": "[1]; FeSSIF, 24 hours", "result": 1.8},
      {"measurement": "pH of the filtrate", "setting": "[1]; FeSSIF, 24 hours", "result": 4.9},
      {"measurement": "S (dynamic solubility)", "setting": "[1]; H2O, 1 hour", "result": 0.11},
      {"measurement": "pH of the filtrate", "setting": "[1]; H2O, 1 hour", "result": 4.5},
      {"measurement": "S (dynamic solubility)", "setting": "[1]; H2O, 2 hours", "result": 0.11},
      {"measurement": "pH of the filtrate", "setting": "[1]; H2O, 2 hours", "result": 4.4},
      {"measurement": "S (dynamic solubility)", "setting": "[1]; H2O, 4 hours", "result": 0.13},
      {"measurement": "pH of the filtrate", "setting": "[1]; H2O, 4 hours", "result": 4.8},
      {"measurement": "S (dynamic solubility)", "setting": "[1]; H2O, 24 hours", "result": 0.11},
      {"measurement": "pH of the filtrate", "setting": "[1]; H2O, 24 hours", "result": 4.7},
      {"measurement": "S (dynamic solubility)", "setting": "[1]; SGF, 1 hour", "result": 5.4},
      {"measurement": "pH of the filtrate", "setting": "[1]; SGF, 1 hour", "result": 3.1},
      {"measurement": "S (dynamic solubility)", "setting": "[1]; SGF, 2 hours", "result": 5.2},
      {"measurement": "pH of the filtrate", "setting": "[1]; SGF, 2 hours", "result": 3.1},
      {"measurement": "S (dynamic solubility)", "setting": "[1]; SGF, 4 hours", "result": 5.1},
      {"measurement": "pH of the filtrate", "setting": "[1]; SGF, 4 hours", "result": 3.1},
      {"measurement": "S (dynamic solubility)", "setting": "[1]; SGF, 24 hours", "result": 5.3},
      {"measurement": "pH of the filtrate", "setting": "[1]; SGF, 24 hours", "result": 3.2},
      {"measurement": "Purity", "setting": "[2]; 25° C./60% RH, 1 week", "result": 99.54, "unit": "area %"},
      {"measurement": "Purity/initial purity", "setting": "[2]; 25° C./60% RH, 1 week", "result": 100.0, "unit": "%"},
      {"measurement": "Purity", "setting": "[2]; 40° C./75% RH, 1 week", "result": 99.56, "unit": "area %"},
      {"measurement": "Purity/initial purity", "setting": "[2]; 40° C./75% RH, 1 week", "result": 100.0, "unit": "%"},
      {"measurement": "Purity", "setting": "[2]; Starting", "result": 99.56, "unit": "area %"},
      {"measurement": "T/C (relative tumor proliferation rate)", "setting": "[3]; 7.5 mg/kg oral once a day, day 3", "result": 71.1, "unit": "%"},
      {"measurement": "T/C (relative tumor proliferation rate)", "setting": "[3]; 7.5 mg/kg oral once a day, day 7", "result": 60.2, "unit": "%"},
      {"measurement": "T/C (relative tumor proliferation rate)", "setting": "[3]; 7.5 mg/kg oral once a day, day 10", "result": 49.9, "unit": "%"},
      {"measurement": "T/C (relative tumor proliferation rate)", "setting": "[3]; 7.5 mg/kg oral once a day, day 14", "result": 46.9, "unit": "%"},
      {"measurement": "T/C (relative tumor proliferation rate)", "setting": "[3]; 7.5 mg/kg oral once a day, day 18", "result": 47.4, "unit": "%"},
      {"measurement": "T/C (relative tumor proliferation rate)", "setting": "[3]; 7.5 mg/kg oral once a day, day 21", "result": 43.73, "unit": "%"},
      {"measurement": "T/C (relative tumor proliferation rate)", "setting": "[3]; 15 mg/kg oral once a day, day 3", "result": 66.3, "unit": "%"},
      {"measurement": "T/C (relative tumor proliferation rate)", "setting": "[3]; 15 mg/kg oral once a day, day 7", "result": 40.4, "unit": "%"},
      {"measurement": "T/C (relative tumor proliferation rate)", "setting": "[3]; 15 mg/kg oral once a day, day 10", "result": 30.9, "unit": "%"},
      {"measurement": "T/C (relative tumor proliferation rate)", "setting": "[3]; 15 mg/kg oral once a day, day 14", "result": 25.3, "unit": "%"},
      {"measurement": "T/C (relative tumor proliferation rate)", "setting": "[3]; 15 mg/kg oral once a day, day 18", "result": 25.4, "unit": "%"},
      {"measurement": "T/C (relative tumor proliferation rate)", "setting": "[3]; 15 mg/kg oral once a day, day 21", "result": 19.41, "unit": "%"},
      {"measurement": "Moisture adsorption (25° C./80% RH)", "setting": "[4]; 25° C./80% RH", "result": 2.09, "unit": "%"},
      {"measurement": "Hygroscopicity", "setting": "[4]; 25° C.", "result": "Hygroscopic"}
    ]}
  ]
}
